In publication PMC10708030, “Cytotoxic Natural Products Isolated from Cryptogramma crispa (L.) R. Br” (Molecules, 2023):

How the values were obtained:
[1] = cited from earlier work
[2] = system: myeloid leukaemia HL 60 cells; conditions: cited from earlier work
[3] = system: acute myeloid leukaemia cell line MOLM13; test: Cytotoxicity, WST-1 metabolic activity, MOLM13 cells; assay type: cell-based; conditions: Homo sapiens, MOLM-13; 72 h incubation, metabolic activity (WST-1), 3 independent experiments
Procedure: (§1) Stock solutions were prepared by dissolving pure compounds to a final concentration of 20 mM in DMSO. The normal rat kidney epithelial cells (NRK, ATCC no.: CRL-6509) and rat cardiomyoblasts (H9c2, ATCC no.: CRL-1446) were cultured in DMEM medium supplemented with 10% foetal bovine serum (FBS, Invitrogen, Carlsbad, CA, USA). When the cells reached 80% confluence, they were detached in a mild trypsin treatment (0.33 mg/mL trypsin for 5 min at 37 °C), centrifuged (160× g, 4 min), and reseeded in fresh medium to 25% confluence.
The AML cell line MOLM13 (DSMZ no.: ACC554 [24]) was cultured in RPMI-1640 medium enriched with 10% FBS 8mM L-glutamine (Sigma Life Science, London, UK). […]
(§2) […] The plates were further incubated for two hours before the signal was recorded at 450 nm with a reference at 620 nm. […]
(§3) After the recording of WST-1, the cells were then fixed with 2% buffered formaldehyde (pH 7.4) with 0.01 mg/mL of the DNA-specific fluorescent dye, Hoechst 33342. The presence of dead (apoptotic or necrotic) cells was verified via differential interference contrast and fluorescence microscopy as previously described by Oftedal et al. and Myhren et al..
(§4) EC50 values were determined using four-parameter regression analysis described by Viktorsson et al. using SigmaPlot v14 software (Systat Software Inc., San Jose, CA, USA).

[4] = system: rat cardiomyoblasts (H9c2); test: Cytotoxicity, WST-1 metabolic activity, H9c2 cells; assay type: cell-based; conditions: 72 h incubation, metabolic activity (WST-1), three experiments
Procedure: as §1
(§5) All media were supplemented with 1 IU/mL penicillin and 1 mg/mL streptomycin (both from Cambrex, Liège, Belgium) and incubated in a humidified atmosphere (37 °C, 5% CO2). […]
as §2, §3, §4

[5] = system: normal rat kidney epithelial cells (NRK); test: Cytotoxicity, WST-1 metabolic activity, NRK cells; assay type: cell-based; conditions: Epithelial cell, 72 h incubation, metabolic activity (WST-1), three experiments
Procedure: as §1, §5, §2, §3, §4

Row | Compound | antibacterial activity [1] | cytotoxic effects against HL 60 cells [2] [nM] | EC50 [3] [µM] | EC50 [4] [µM] | EC50 [5] [µM]
1 | CC1=C2C(=C[C@@](C)(CO)[C@@H]2O)C(=O)[C@](C)(O)C12CC2 [illudin S] | significant antibacterial activity |  |  |  | 
2 | CC1=C2C(=CC(C)(C)[C@@H]2O)C(=O)[C@](C)(O)C12CC2 [illudin M] | significant antibacterial activity | 6 to 100 |  |  | 
3 | Cc1cc2c(c(C)c1CCOC1OC(CO)C(O)C(O)C1O)C(=O)C(C)(C)C2OC(=O)CC(=O)O [Compound 14, 3(R)-O-malonyl pteroside D] |  |  | 197.88 ± 0.18 | > 200 | > 200
